Assay results published in US4311698A, “Aminoacid derivatives of cephalosporin compounds” (priority 1980, dated 1982).
Converted amounts (≈) assume the structure as drawn.

Assays:
Assay type in all cases: cell-based
[1] = test system: Entero Cloac. IM 11; assay: In vitro minimal inhibitory concentration, Entero Cloac. IM 11
[2] = test system: Pseudomonas BRK 12-4-4; assay: In vitro minimal inhibitory concentration, Pseudomonas BRK 12-4-4; details: BRK1244
[3] = test system: Staph UC76; assay: In vitro minimal inhibitory concentration, Staph UC76
[4] = test system: E. Coli. Brig; assay: In vitro minimal inhibitory concentration, E. Coli. Brig; details: Escherichia coli
[5] = test system: E. Coli. Vogel; assay: In vitro minimal inhibitory concentration, E. Coli. Vogel; details: Escherichia coli
[6] = test system: Prot Vulg.; assay: In vitro minimal inhibitory concentration, Prot Vulg.
[7] = test system: Pseudomonas #28; assay: In vitro minimal inhibitory concentration, Pseudomonas #28; details: Pseudomonas #28; in vitro; read-out: Minimal Inhibitory Concentration
[8] = test system: Strep. fec. MGH 2; assay: In vitro minimal inhibitory concentration, Strep. fec. MGH 2
[9] = test system: Klebs. Pneum. MGH 2; assay: In vitro minimal inhibitory concentration, Klebs. Pneum. MGH 2
[10] = test system: Pseudomonas UI 18; assay: In vitro minimal inhibitory concentration, Pseudomonas UI 18; details: UI18
[11] = test system: Serr. Mar. IMM 16; assay: In vitro minimal inhibitory concentration, Serr. Mar. IMM 16
[12] = test system: Staph S 18713; assay: In vitro minimal inhibitory concentration, Staph S 18713

Row | SMILES | MIC [1] | MIC [2] | MIC [3] | MIC [4] | MIC [5] | MIC [6] | MIC [7] | MIC [8] | MIC [9] | MIC [10] | MIC [11] | MIC [12]
1 | CC(=O)N[C@@H](C)C(=O)Nc1ccc(-c2ccc(C(=O)N[C@@H](C(=O)NC3C(=O)N4C(C(=O)O)=C(CSc5nnc(C)s5)CSC34)c3ccccc3)c(=O)[nH]2)cc1 (stereo partly drawn) [Example 15, N-[6-[4-(N-Acetyl-L-alanylamino)phenyl]-1,2-dihydro-2-oxonicotinyl]-7-[D-2-amino-2-phenylacetamido]-3-[([5-methyl-1,3,4-thiadiazolyl-2-yl]thio)methyl]-3-cephem-4-carboxylic acid] | 12.5 µg/mL (≈ 15.6 µM) | 12.5 µg/mL (≈ 15.6 µM) | 0.4 µg/mL (≈ 0.498 µM) | 6.3 µg/mL (≈ 7.85 µM) | 1.6 µg/mL (≈ 1.99 µM) | 12.5 µg/mL (≈ 15.6 µM) | 12.5 µg/mL (≈ 15.6 µM) | 12.5 µg/mL (≈ 15.6 µM) | 3.1 µg/mL (≈ 3.86 µM) | 12.5 µg/mL (≈ 15.6 µM) | 25 µg/mL (≈ 31.1 µM) | 6.3 µg/mL (≈ 7.85 µM)
2 | O=C(O)Cn1nnnc1SCC1=C(C(=O)O)N2C(=O)C(NC(=O)[C@H](NC(=O)c3ccc(-c4ccc(NC(=O)[C@@H]5CCC(=O)N5)cc4)[nH]c3=O)c3ccccc3)C2SC1 (stereo partly drawn) [Example 16, N-[6-[4-(L-Pyroglutamylamino)phenyl]-1,2-dihydro-2-oxonicotinyl]-7-[D-2-amino-2-phenylacetamido]-3-[[(1-carboxymethyl-1H-tetrazol-5-yl)thio]methyl]-3-cephem-4-carboxylic acid] | 3.1 µg/mL (≈ 3.74 µM) | 6.3 µg/mL (≈ 7.6 µM) | 3.1 µg/mL (≈ 3.74 µM) | 3.1 µg/mL (≈ 3.74 µM) | 0.4 µg/mL (≈ 0.483 µM) | 0.4 µg/mL (≈ 0.483 µM) | 3.1 µg/mL (≈ 3.74 µM) | 50 µg/mL (≈ 60.3 µM) | 0.8 µg/mL (≈ 0.965 µM) | 6.3 µg/mL (≈ 7.6 µM) | 6.3 µg/mL (≈ 7.6 µM) | 12.5 µg/mL (≈ 15.1 µM)
3 | CC(=O)N[C@H](C)C(=O)Nc1ccc(-c2ccc(C(=O)N[C@@H](C(=O)NC3C(=O)N4C(C(=O)O)=C(CSc5nnnn5C)CSC34)c3ccccc3)c(=O)[nH]2)cc1 (stereo partly drawn) [Example 19, N-[6-[4-(N-Acetyl-D-alanylamino)phenyl]-1,2-dihydro-2-oxonicotinyl]-7-[D-2-amino-2-phenylacetamido]-3-[[(1-methyl-1H-tetrazol-5-yl)thio]methyl]-3-cephem-4-carboxylic acid] | 12.5 µg/mL (≈ 15.9 µM) | 12.5 µg/mL (≈ 15.9 µM) | 0.8 µg/mL (≈ 1.02 µM) | 6.3 µg/mL (≈ 8.01 µM) | 0.8 µg/mL (≈ 1.02 µM) | 12.5 µg/mL (≈ 15.9 µM) | 6.3 µg/mL (≈ 8.01 µM) | 25 µg/mL (≈ 31.8 µM) | 3.1 µg/mL (≈ 3.94 µM) | 6.3 µg/mL (≈ 8.01 µM) | 25 µg/mL (≈ 31.8 µM) | 6.3 µg/mL (≈ 8.01 µM)
4 | CC(=O)N[C@H](CC(N)=O)C(=O)Nc1ccc(-c2ccc(C(=O)N[C@@H](C(=O)NC3C(=O)N4C(C(=O)O)=C(CSc5nnnn5C)CSC34)c3ccccc3)c(=O)[nH]2)cc1 (stereo partly drawn) [Example 23, N-[6-[4-(N-Acetyl-D-asparaginylamino)phenyl]-1,2-dihydro-2-oxonicotinyl]-7-[D-2-amino-2-phenylacetamido]-3-[[(1-methyl-1H-tetrazol-5-yl)thio]methyl]-3-cephem-4-carboxylic acid] | 6.3 µg/mL (≈ 7.59 µM) | 6.3 µg/mL (≈ 7.59 µM) | 0.8 µg/mL (≈ 0.964 µM) | 3.1 µg/mL (≈ 3.74 µM) | 0.8 µg/mL (≈ 0.964 µM) | 12.5 µg/mL (≈ 15.1 µM) | 12.5 µg/mL (≈ 15.1 µM) | 25 µg/mL (≈ 30.1 µM) | 1.6 µg/mL (≈ 1.93 µM) | 6.3 µg/mL (≈ 7.59 µM) | 25 µg/mL (≈ 30.1 µM) | 6.3 µg/mL (≈ 7.59 µM)
5 | CC(=O)N[C@H](C)C(=O)Nc1ccc(-c2ccc(C(=O)N[C@@H](C(=O)NC3C(=O)N4C(C(=O)O)=C(CSc5nnnn5C)CSC34)c3ccc(O)cc3)c(=O)[nH]2)cc1 (stereo partly drawn) [Example 25, N-[6-[4(N-Acetyl-D-alanylamino)phenyl]-1,2-dihydro-2-oxonicotinyl]-7-[D-2-amino-2-(4-hydroxyphenyl)acetamido]-3-[[(1-methyl-1H-tetrazol-5-yl)thio]methyl]-3-cephem-4-carboxylic acid] | 1.6 µg/mL (≈ 1.99 µM) | 3.1 µg/mL (≈ 3.86 µM) | 1.6 µg/mL (≈ 1.99 µM) | 3.1 µg/mL (≈ 3.86 µM) | 0.8 µg/mL (≈ 0.996 µM) | 6.3 µg/mL (≈ 7.85 µM) | 3.1 µg/mL (≈ 3.86 µM) | 12.5 µg/mL (≈ 15.6 µM) | 1.6 µg/mL (≈ 1.99 µM) | 3.1 µg/mL (≈ 3.86 µM) | 12.5 µg/mL (≈ 15.6 µM) | 6.3 µg/mL (≈ 7.85 µM)
6 | CC(=O)N[C@H](C)C(=O)Nc1cccc(-c2ccc(C(=O)N[C@@H](C(=O)NC3C(=O)N4C(C(=O)O)=C(COC(C)=O)CSC34)c3ccccc3)c(=O)[nH]2)c1 (stereo partly drawn) [Example 28] | 50 µg/mL (≈ 68.4 µM) | 25 µg/mL (≈ 34.2 µM) | 1.6 µg/mL (≈ 2.19 µM) | 25 µg/mL (≈ 34.2 µM) | 12.5 µg/mL (≈ 17.1 µM) | 50 µg/mL (≈ 68.4 µM) | 12.5 µg/mL (≈ 17.1 µM) | 25 µg/mL (≈ 34.2 µM) | 25 µg/mL (≈ 34.2 µM) | 12.5 µg/mL (≈ 17.1 µM) | > 50 µg/mL | 1.6 µg/mL (≈ 2.19 µM)
